Experimental data taken from US3989837A, “Pharmaceutical compositions” (Chinoin Gyogyszer-es Vegyeszeti Termekek Gyara RT, priority 1972, dated 1976).
“And” between values parts separate entries of the source, which are not always exact repeats. Equal entries are not always repeated.

Assays:
cotton granuloma = experiment: Cotton granuloma, comparison with Indomethacine (Table 6); type: in vivo, rat; details: male rats, oral daily 4 mg./kg., 7 days, p 0.001
Method: Two cotton beads, each weighing 23 to 27 mg., were implanted under the dorsal skin of the animals in aether narcosis, under semisterile conditions, along both sides of the vertebral column. The compound under examination was administered twice a day for 7 days in oral dosages of 0.2 ml./100 g. body weight, in a suspension formed with 1% methyl cellulose. On the 8th day the animals were killed by etheral overnarcosis, the granulomes were removed, dried at 50° C for 5 hours, and then weighed. The animals belonging to the control group were treated similarly, but they received suspending agent only. The percentage efficiacy was calculated from the weight differences of the granuloma tissues observed for the treated and control groups. The significance was examined by the t test.

writhing syndrome = experiment: Writhing syndrome, comparison with Indomethacine (Table 7); type: in vivo, mouse; details: male mice
Method: The tests were carried out on male mice each weighing 15 to 18 g., starved for 16 hours prior to treatment. 0.1 ml./10 g. body weight of 1% acetic acid solution was injected intraperitoneally to the animals. The sterile inflammation occurred on the action of acetic acid provoked a characteristic syndrome (writhing). The number of writhings was counted during an observation period of 20 minutes, starting 15 minutes after the administration of acetic acid. The substance to be tested was administered orally as a suspension, in a dosage of 0.1 ml./10 g. body weight 2 to 4 hours before the acetic acid injection. The average number of writhings observed for the treated animals was compared to that observed in the control group, and the percentage inhibition was calculated from the difference.

kaoline oedema = experiment: Rat paw oedema, kaoline (Table 4'); type: in vivo; details: female rats; for Effect % (average), inhibition of kaoline oedema: average of repeated tests
Method: (§1) Inflammatory plantar oedema was provided by the subplantar injection of 0.1 ml. of 5% kaoline or 0.5% carrageenine on female rats each weighing 110 to 130 g., starved for 24 hours. The dorsoplantar diameter of the test animals was measured with a double-armed instrument prior to the administration of the phlogistic (basic value) and at regular intervals (at 2, 3.5 and 5 hours for kaoline and at 1.5, 3 and 4.5 hours for carrageenine) after the administration of the phlogistic. […] The treatment was always carried out 1 hour before the administration of the phlogistic. The animals belonging to the control group received suspending agent only. In order to ensure a uniform hydration grade, 1 ml. of tap water was administered through a stomach tube to the animals simultaneously with the administration of the active agent. During the test period the animals were allowed to consume water ad libitum.
(§2) The effect was calculated from the difference of the increase in paw diameter observed in the treated and control groups. The daga are given as percentage efficiacy.
(§3) The significance level was examined by Student's t test. The significance levels are marked by asterisks; the values of the repeated tests are given separately.

rats = experiment: Ulcerogeneous action on rats, comparison with Indomethacine (Table 3'); details: male rats, 5 days
mice = experiment: Toxicity on mice after oral administration, single dosage (Table 1'); type: in vivo; details: male mice
Method: (§4) The tests were carried out on male mice weighing 25 to 30 g., not starved previously. The compounds were administered in a dosage of 0.2 ml. of suspension per 10 g. body weight. The individual dosages indicated in Table 1' were administered to 10 mice each. The given amount of active agent was added in a single dosage, and the animals were dept under observation for 7 days (= 168 hours). The number of deceased animals was recorded daily.
(§5) The LD50 values were calculated according to the Litchfied-Wilcoxon method, by also taking into account the number of animals perished within 168 hours from the administration.

[1] = as above; type: in vivo; details: mouse, in vivo, po; male mice, p.o., 168 hours; read-out: LD50
Method: as §4, §5

carrageenine oedema = experiment: Rat paw oedema, carrageenine (Table 5'); type: in vivo; details: female rats, p.o. 10 mg./kg.; for Effect % (average), inhibition of carrageenine oedema: average of repeated tests
Method: as §1, §2, §3

COc1ccc2c(c1)c(CC(=O)O)c(C)n2C(=O)c1ccc(Cl)cc1 [Indomethacine, reference compound]
Effect %, cotton granuloma (cotton granuloma): 36.0%
Effect %, writhing (writhing syndrome; p.o. 5 mg./kg., 2 hours): 58.2% and 61.1%
Effect % average, writhing (writhing syndrome; p.o. 5 mg./kg., 2 hours): 59.6%
Effect %, writhing (writhing syndrome; p.o. 5 mg./kg., 4 hours): 65.7% and 43.7%
Effect % average, writhing (writhing syndrome; p.o. 5 mg./kg., 4 hours): 54.7%
Effect %, writhing (writhing syndrome; p.o. 12.5 mg./kg., 2 hours): 73.6% and 67.2%
Effect % average, writhing (writhing syndrome; p.o. 12.5 mg./kg., 2 hours): 70.4%
Effect %, writhing (writhing syndrome; p.o. 12.5 mg./kg., 4 hours): 85.8% and 70.0%
Effect % average, writhing (writhing syndrome; p.o. 12.5 mg./kg., 4 hours): 77.9%
Effect %, inhibition of kaoline oedema (kaoline oedema; p.o. 10 mg./kg., 2 hours): 14.7% and 19.7%
Effect % (average), inhibition of kaoline oedema (kaoline oedema; p.o. 10 mg./kg., 2 hours): 17.2%
Effect %, inhibition of kaoline oedema (kaoline oedema; p.o. 10 mg./kg., 3.5 hours): 19.5% and 27.6%
Effect % (average), inhibition of kaoline oedema (kaoline oedema; p.o. 10 mg./kg., 3.5 hours): 23.5%
Effect %, inhibition of kaoline oedema (kaoline oedema; p.o. 10 mg./kg., 5 hours): 21.2% and 27.2%
Effect % (average), inhibition of kaoline oedema (kaoline oedema; p.o. 10 mg./kg., 5 hours): 24.2%
Effect %, inhibition of kaoline oedema (kaoline oedema; p.o. 25 mg./kg., 2 hours): 33.7% and 32.7%
Effect % (average), inhibition of kaoline oedema (kaoline oedema; p.o. 25 mg./kg., 2 hours): 33.2%
Effect %, inhibition of kaoline oedema (kaoline oedema; p.o. 25 mg./kg., 3.5 hours): 35.1% and 37.1%
Effect % (average), inhibition of kaoline oedema (kaoline oedema; p.o. 25 mg./kg., 3.5 hours): 36.1%
Effect %, inhibition of kaoline oedema (kaoline oedema; p.o. 25 mg./kg., 5 hours): 32.1% and 44.4%
Effect % (average), inhibition of kaoline oedema (kaoline oedema; p.o. 25 mg./kg., 5 hours): 38.2%
Animals having lesions on the intestines (rats; oral 4 mg./kg.): 5%
Perishment (rats; oral 4 mg./kg.): 0/20
Survivals (rats; oral 4 mg./kg.): 20
Ulcer index (rats; oral 4 mg./kg.): 0.45
Ulcer number (rats; oral 4 mg./kg.): 0.1
Animals having lesions on the intestines (rats; oral 8 mg./kg.): 40%
Perishment (rats; oral 8 mg./kg.): 10/20
Survivals (rats; oral 8 mg./kg.): 10
Ulcer index (rats; oral 8 mg./kg.): 0.3
Ulcer number (rats; oral 8 mg./kg.): 0
Perished animals/treated animals (mice; oral 50 mg./kg., 24 h): 0/10
Perished animals/treated animals (mice; oral 50 mg./kg., 48 h): 0/10
Perished animals/treated animals (mice; oral 50 mg./kg., 72 h): 0/10
Perished animals/treated animals (mice; oral 50 mg./kg., 96 h): 0/10
Perished animals/treated animals (mice; oral 50 mg./kg., 120 h): 0/10
Perished animals/treated animals (mice; oral 50 mg./kg., 144 h): 0/10
Perished animals/treated animals (mice; oral 50 mg./kg., 168 h): 0/10
Perished animals/treated animals (mice; oral 150 mg./kg., 24 h): 0/10
Perished animals/treated animals (mice; oral 150 mg./kg., 48 h): 0/10
Perished animals/treated animals (mice; oral 150 mg./kg., 72 h): 0/10
Perished animals/treated animals (mice; oral 150 mg./kg., 96 h): 2/10
Perished animals/treated animals (mice; oral 150 mg./kg., 120 h): 4/10
Perished animals/treated animals (mice; oral 150 mg./kg., 144 h): 6/10
Perished animals/treated animals (mice; oral 150 mg./kg., 168 h): 6/10
Perished animals/treated animals (mice; oral 300 mg./kg., 24 h): 0/10
Perished animals/treated animals (mice; oral 300 mg./kg., 48 h): 0/10
Perished animals/treated animals (mice; oral 300 mg./kg., 72 h): 4/10
Perished animals/treated animals (mice; oral 300 mg./kg., 96 h): 6/10
Perished animals/treated animals (mice; oral 300 mg./kg., 120 h): 8/10
Perished animals/treated animals (mice; oral 300 mg./kg., 144 h): 10/10
Perished animals/treated animals (mice; oral 300 mg./kg., 168 h): 10/10
Perished animals/treated animals (mice; oral 500 mg./kg., 24 h): 0/10
Perished animals/treated animals (mice; oral 500 mg./kg., 48 h): 2/10
Perished animals/treated animals (mice; oral 500 mg./kg., 72 h): 4/10
Perished animals/treated animals (mice; oral 500 mg./kg., 96 h): 7/10
Perished animals/treated animals (mice; oral 500 mg./kg., 120 h): 9/10
Perished animals/treated animals (mice; oral 500 mg./kg., 144 h): 10/10
Perished animals/treated animals (mice; oral 500 mg./kg., 168 h): 10/10
Perished animals/treated animals (mice; oral 700 mg./kg., 24 h): 1/10
Perished animals/treated animals (mice; oral 700 mg./kg., 48 h): 5/10
Perished animals/treated animals (mice; oral 700 mg./kg., 72 h): 5/10
Perished animals/treated animals (mice; oral 700 mg./kg., 96 h): 7/10
Perished animals/treated animals (mice; oral 700 mg./kg., 120 h): 9/10
Perished animals/treated animals (mice; oral 700 mg./kg., 144 h): 9/10
Perished animals/treated animals (mice; oral 700 mg./kg., 168 h): 10/10
Perished animals/treated animals (mice; oral 900 mg./kg., 24 h): 1/10
Perished animals/treated animals (mice; oral 900 mg./kg., 48 h): 4/10
Perished animals/treated animals (mice; oral 900 mg./kg., 72 h): 6/10
Perished animals/treated animals (mice; oral 900 mg./kg., 96 h): 8/10
Perished animals/treated animals (mice; oral 900 mg./kg., 120 h): 10/10
Perished animals/treated animals (mice; oral 900 mg./kg., 144 h): 10/10
Perished animals/treated animals (mice; oral 900 mg./kg., 168 h): 10/10
LD50 at 168 h [1]: 140 mg/kg
Effect %, inhibition of carrageenine oedema (carrageenine oedema; 1.5 hours): 24.1% and 20.6%
Effect % (average), inhibition of carrageenine oedema (carrageenine oedema; 1.5 hours): 22.3%
Effect %, inhibition of carrageenine oedema (carrageenine oedema; 3 hours): 32.9% and 28.8%
Effect % (average), inhibition of carrageenine oedema (carrageenine oedema; 3 hours): 30.8%
Effect %, inhibition of carrageenine oedema (carrageenine oedema; 4.5 hours): 19.8% and 20.9%
Effect % (average), inhibition of carrageenine oedema (carrageenine oedema; 4.5 hours): 20.3%
